Patent US20150191469A1, “COMPOUNDS AND METHODS FOR TREATING HIV” (priority 2012, published 2015)

Test system: HIV
Assay: MT4 assay: antiviral HIV activity (cell protection, cell titer glo readout at 96 hours)
Assay type: cell-based
Details: Human immunodeficiency virus 1, MT4, 96 h, MT4 cells, cell titer glo readout at 96 hours, 10 point dose response; read-out: HIV MT4 Assay IC50
Procedure, shortened: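 MT-4 cells infected with HIV, with inhibition readout by CellTiter-Glo luminescence at 96 h relative to no-compound control. Cytotoxicity measured in parallel under the same conditions. IC50 from a 10-point, 3-4-fold dilution series spanning >1000-fold, fitted with a four-parameter logistic equation.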

SMILES	IC50
Cc1nc2c(cc(C(=O)NCc3ccncc3)n2C)c(-c2cc(F)c3c(c2C)CCCO3)c1[C@H](OC(C)(C)C)C(=O)O [Example 274]	208 nM
Cc1nc2c(cc(CCc3ccnc4ccccc34)n2C)c(-c2cc(F)c3c(c2C)CCCO3)c1[C@H](OC(C)(C)C)C(=O)O [Example 284]	15.7 nM
Cc1nc2c(cc(CCc3ccncc3)n2C)c(-c2cc(F)c3c(c2C)CCCO3)c1[C@H](OC(C)(C)C)C(=O)O [Example 285]	46.6 nM
Cc1nc2c(cc(CCc3ccc4cnn(C)c4c3)n2C)c(-c2cc(F)c3c(c2C)CCCO3)c1[C@H](OC(C)(C)C)C(=O)O [Example 286]	15 nM
Cc1nc2c(cc(CN3CCC[C@H]3C(=O)Nc3ccc4c(cnn4C)c3)n2C)c(-c2cc(F)c3c(c2C)CCCO3)c1[C@H](OC(C)(C)C)C(=O)O [Example 292]	41.3 nM
Cc1nc2c(cc(CN3CC[C@@H](NC(=O)c4ccc5c(cnn5C)c4)C3)n2C)c(-c2cc(F)c3c(c2C)CCCO3)c1[C@H](OC(C)(C)C)C(=O)O [Example 293]	44.3 nM
Cc1nc2c(cc(CN3CCC[C@H](NC(=O)c4ccc5c(cnn5C)c4)C3)n2C)c(-c2cc(F)c3c(c2C)CCCO3)c1[C@H](OC(C)(C)C)C(=O)O [Example 294]	38.6 nM
Cc1nc2c(cc(CN(C)C(=O)c3ccc4c(cnn4C)c3)n2C)c(-c2cc(F)c3c(c2C)CCCO3)c1[C@H](OC(C)(C)C)C(=O)O [Example 296]	28.5 nM
Cc1nc2c(cc(CCC(=O)Nc3ccc4c(cnn4C)c3)n2C)c(-c2cc(F)c3c(c2C)CCCO3)c1[C@H](OC(C)(C)C)C(=O)O [Example 298]	258 nM
Cc1nc2c(cc(CCC(=O)N(C)c3ccc4c(cnn4C)c3)n2C)c(-c2cc(F)c3c(c2C)CCCO3)c1[C@H](OC(C)(C)C)C(=O)O [Example 299]	39.3 nM

The remaining lines, values ahead:

IC50	SMILES
1000 nM	Cc1nc2c(cc(C(=O)NCCN3CCCC3)n2C)c(-c2cc(F)c3c(c2C)CCCO3)c1[C@H](OC(C)(C)C)C(=O)O [Example 275]
10 nM	Cc1nc2c(cc(C(=O)NCC3CCC3)n2C)c(-c2cc(F)c3c(c2C)CCCO3)c1[C@H](OC(C)(C)C)C(=O)O [Example 276]
100 nM	Cc1nc2c(cc(C(=O)N3CCN(C(C)C)CC3)n2C)c(-c2cc(F)c3c(c2C)CCCO3)c1[C@H](OC(C)(C)C)C(=O)O [Example 277]
110 nM	Cc1nc2c(cc(C(=O)N3CCC(N4CCCCC4)CC3)n2C)c(-c2cc(F)c3c(c2C)CCCO3)c1[C@H](OC(C)(C)C)C(=O)O [Example 278]
10 nM	COC(C)(C)CCNC(=O)c1cc2c(-c3cc(F)c4c(c3C)CCCO4)c([C@H](OC(C)(C)C)C(=O)O)c(C)nc2n1C [Example 279]
400 nM	Cc1nc2c(cc(C3CCC(C)(C)CC3)n2C)c(-c2cc(F)c3c(c2C)CCCO3)c1[C@H](OC(C)(C)C)C(=O)O [Example 283]
171 nM	Cc1nc2c(cc(CN3CCCN(C4COC4)CC3)n2C)c(-c2cc(F)c3c(c2C)CCCO3)c1[C@H](OC(C)(C)C)C(=O)O [Example 289]
48.1 nM	COC[C@H]1CCCN1Cc1cc2c(-c3cc(F)c4c(c3C)CCCO4)c([C@H](OC(C)(C)C)C(=O)O)c(C)nc2n1C [Example 290]
44.4 nM	Cc1nc2c(cc(CN3CCc4ccc(N5CCCCC5)cc4C3)n2C)c(-c2cc(F)c3c(c2C)CCCO3)c1[C@H](OC(C)(C)C)C(=O)O [Example 291]
51.2 nM	Cc1nc2c(cc(CN3CCC[C@@H]3CO)n2C)c(-c2cc(F)c3c(c2C)CCCO3)c1[C@H](OC(C)(C)C)C(=O)O [Example 295]
3.9 nM	Cc1nc2c(cc(-c3nnc(N4CCC(C)CC4)o3)n2C)c(-c2cc(F)c3c(c2C)CCCO3)c1[C@H](OC(C)(C)C)C(=O)O [Example 301]
44.2 nM	Cc1nc2c(cc(-c3nnc(N4CCCN(C5COC5)CC4)o3)n2C)c(-c2cc(F)c3c(c2C)CCCO3)c1[C@H](OC(C)(C)C)C(=O)O [Example 302]
3.9 nM	COC1CCN(c2nnc(-c3cc4c(-c5cc(F)c6c(c5C)CCCO6)c([C@H](OC(C)(C)C)C(=O)O)c(C)nc4n3C)o2)CC1 [Example 303]
